Where two headings read alike, the source gives them in different places.

The target in assay [1] is T1, truncated rat FAAH (rFAAH) (Rattus norvegicus, UniProt P97612).
T1 construct: The truncated rat FAAH (rFAAH) was expressed in E. coli and purified as described by Patricelli et al; made in house; host or cells: E. coli
T1 sequence (P97612 30-579 limits assumed): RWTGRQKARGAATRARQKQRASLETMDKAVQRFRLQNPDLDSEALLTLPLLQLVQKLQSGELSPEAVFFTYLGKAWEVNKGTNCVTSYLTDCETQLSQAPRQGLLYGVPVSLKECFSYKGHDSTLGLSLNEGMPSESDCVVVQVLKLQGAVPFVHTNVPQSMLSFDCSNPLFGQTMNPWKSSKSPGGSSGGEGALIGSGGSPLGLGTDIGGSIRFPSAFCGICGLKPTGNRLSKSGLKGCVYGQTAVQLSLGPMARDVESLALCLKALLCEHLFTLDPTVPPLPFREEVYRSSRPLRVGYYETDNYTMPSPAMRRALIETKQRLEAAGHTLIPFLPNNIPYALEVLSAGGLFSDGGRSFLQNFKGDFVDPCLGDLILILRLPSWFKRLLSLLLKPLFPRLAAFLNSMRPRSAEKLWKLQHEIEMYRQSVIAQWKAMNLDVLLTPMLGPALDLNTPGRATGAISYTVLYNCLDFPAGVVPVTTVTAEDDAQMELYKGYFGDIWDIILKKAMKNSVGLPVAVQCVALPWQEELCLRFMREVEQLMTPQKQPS
Kind of assay: Rat FAAH inhibition enzyme assay (14C-oleamide hydrolysis, Dixon plot). Type of assay: biochemical. On the procedure:
The purified recombinant rFAAH was used in the inhibition assays unless otherwise indicated.
The ^14C-labeled oleamide (substrate) and oleic acid (product) were extracted with EtOAc and analyzed by TLC. The Ki of the inhibitor was calculated using a Dixon plot (standard deviations are provided in the Supporting Information tables).

For assay [2], the target named is T2, FAAH (UniProt O08914).
T2 sequence (O08914 1-579): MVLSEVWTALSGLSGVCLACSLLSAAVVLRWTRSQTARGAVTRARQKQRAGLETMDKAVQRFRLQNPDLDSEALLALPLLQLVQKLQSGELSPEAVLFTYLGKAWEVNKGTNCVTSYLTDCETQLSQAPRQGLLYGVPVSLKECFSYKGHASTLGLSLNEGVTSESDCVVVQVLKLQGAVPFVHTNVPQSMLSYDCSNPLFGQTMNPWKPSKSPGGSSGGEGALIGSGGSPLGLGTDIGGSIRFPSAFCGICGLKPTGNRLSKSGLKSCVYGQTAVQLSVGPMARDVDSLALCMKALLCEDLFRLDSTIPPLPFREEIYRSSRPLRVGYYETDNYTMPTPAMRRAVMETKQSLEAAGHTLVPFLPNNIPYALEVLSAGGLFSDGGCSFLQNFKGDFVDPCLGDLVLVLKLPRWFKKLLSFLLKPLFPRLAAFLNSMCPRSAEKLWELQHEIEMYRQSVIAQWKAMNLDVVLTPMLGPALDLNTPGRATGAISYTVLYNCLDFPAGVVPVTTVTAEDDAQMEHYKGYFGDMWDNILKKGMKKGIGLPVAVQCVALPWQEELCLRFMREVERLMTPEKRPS
Kind of assay: Proteome-wide serine hydrolase selectivity screening, FAAH. The format is biochemical, human.

In assay [3] the target is T3, membrane-associated hydrolase (KIAA1363) (UniProt Q8BLF1).
T3 sequence (Q8BLF1 1-408): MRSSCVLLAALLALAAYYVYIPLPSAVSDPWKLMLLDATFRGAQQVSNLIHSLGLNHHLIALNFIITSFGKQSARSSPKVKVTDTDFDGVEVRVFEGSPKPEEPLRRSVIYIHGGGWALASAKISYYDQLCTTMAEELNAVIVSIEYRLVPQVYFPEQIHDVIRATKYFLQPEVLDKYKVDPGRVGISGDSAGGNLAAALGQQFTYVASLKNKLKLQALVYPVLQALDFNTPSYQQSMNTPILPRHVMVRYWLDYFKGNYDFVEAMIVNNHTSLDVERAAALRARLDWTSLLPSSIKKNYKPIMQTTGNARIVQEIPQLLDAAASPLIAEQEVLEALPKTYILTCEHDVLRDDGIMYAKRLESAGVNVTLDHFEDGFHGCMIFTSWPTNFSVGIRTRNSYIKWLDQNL
The assay can be described thus: Proteome-wide serine hydrolase selectivity screening, KIAA1363. Type of assay: biochemical. To be noted: selectivity screening.

Assay [4] concerns membrane-associated hydrolase (KIAA1363). The assay is described as above. Type of assay: biochemical. As to conditions: value in parentheses; FAAH versus KIAA1363.
For assay [5], the target named is T4, triacylglycerol hydrolase (TGH) (UniProt Q8VCT4).
T4 sequence (Q8VCT4 1-565): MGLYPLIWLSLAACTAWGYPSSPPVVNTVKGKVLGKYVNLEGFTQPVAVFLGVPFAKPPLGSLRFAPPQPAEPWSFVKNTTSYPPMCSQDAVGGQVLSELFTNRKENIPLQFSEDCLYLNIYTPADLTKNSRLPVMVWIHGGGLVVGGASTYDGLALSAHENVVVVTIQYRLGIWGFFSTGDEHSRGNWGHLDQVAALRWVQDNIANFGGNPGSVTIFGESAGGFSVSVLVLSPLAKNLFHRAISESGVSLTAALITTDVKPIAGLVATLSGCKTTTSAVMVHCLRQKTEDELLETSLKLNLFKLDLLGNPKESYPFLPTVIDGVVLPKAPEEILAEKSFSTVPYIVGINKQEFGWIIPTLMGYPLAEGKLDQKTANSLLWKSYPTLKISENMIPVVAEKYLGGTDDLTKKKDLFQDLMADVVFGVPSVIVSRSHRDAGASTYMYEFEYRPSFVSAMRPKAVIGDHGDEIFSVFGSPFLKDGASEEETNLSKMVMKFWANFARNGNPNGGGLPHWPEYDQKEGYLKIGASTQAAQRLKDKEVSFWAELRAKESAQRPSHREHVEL
Kind of assay: Proteome-wide serine hydrolase selectivity screening, TGH. The format is biochemical, human. As to conditions: selectivity screening.

In assay [6] the test system is triacylglycerol hydrolase (TGH). The assay is described as above. Type of assay: biochemical, human. To be noted: value in parentheses; FAAH versus TGH.
Setting [7] is: Table 1, purified recombinant rFAAH, pH 9.0, read-out: Rat FAAH inhibition Ki.
Setting [8] is: Table 4, value ± error, read-out: Ki, inhibition results with calculated errors.

By Ki is commonly meant the dissociation constant of the complex between target and ligand, obtained from inhibition or displacement. By IC50 is commonly meant the midpoint of a concentration-inhibition curve. A high value points to a need for much substance. With `N#Cc1coc(C(=O)CCCCCCc2ccccc2)n1` [Compound 4s, 2-(7-Phenylheptanoyl)oxazole-4-carbonitrile], the inhibition constant Ki in assay [1] (setting [7]) was 0.5 nM; in assay [1] (Table 2, read-out: FAAH Ki), 0.6 nM; in assay [1] (setting [8]), 0.5 ± 0.009 nM. In addition, the IC50 turned out to be 20 nM in assay [2], 30000 nM in assay [3] and 30 nM in assay [5]. The “KIAA1363 (selectivity)” value in assay [4] is “(1500)”. Further, the “TGH (selectivity)” value in assay [6] is “(1.5)”.
Regarding `O=C(CCCCCCc1ccccc1)c1nc(C(F)(F)F)co1` [Compound 4t, 7-Phenyl-1-(4-(trifluoromethyl)oxazol-2-yl)heptan-1-one], the Ki in assay [1] (setting [7]) is 3.7 nM; in assay [1] (Table 2, read-out: FAAH Ki) it was 3.7 nM; in assay [1] (setting [8]) it was 3.7 ± 0.02 nM. Moreover, the 50% inhibitory concentration (IC50) in assay [2] was determined as 400 nM; in assay [3], 10000 nM; in assay [5], 60 nM. Besides, the “KIAA1363 (selectivity)” value in assay [4] is “(25)”. In addition, in assay [6], the “TGH (selectivity)” value was “(0.15)”.
Consider `O=C(CCCCCCc1ccccc1)c1ncc(C(F)(F)F)o1` [Compound 5a, reference compound], for which, in assay [1] (Table 2, read-out: FAAH Ki), the Ki came out at 0.3 nM. The 50% inhibitory concentration (IC50) in assay [2] was 70 nM; in assay [3] it was > 100000 nM; in assay [5] it was 200 nM. Moreover, the “KIAA1363 (selectivity)” value in assay [4] is “(>1400)”. In assay [6], the “TGH (selectivity)” value is reported as “(3)”.

The values are drawn from US20120302607A1, “C4-SUBSTITUTED ALPHA-KETO OXAZOLES” (The Scripps Research Institute, priority 2008, published 2012).
